According to US10906876B2, “Tetrahydroisoquinolines as selective NADPH oxidase 2 inhibitors” (University of Pittsburgh—Of the Commonwealth System of …, priority 2013, dated 2021):

Legend:
Nox2 [1] = target: T1, Nox2 (Homo sapiens, UniProt P04839); assay: ROS (superoxide) generation in whole COS-Nox2 cells, L-012 chemiluminescence; type: cell-based; conditions: whole COS-Nox2 cells stimulated with 5 μM PMA
T1 construct: expressed in transfected cells
T1 sequence (P04839 2-570 limits assumed): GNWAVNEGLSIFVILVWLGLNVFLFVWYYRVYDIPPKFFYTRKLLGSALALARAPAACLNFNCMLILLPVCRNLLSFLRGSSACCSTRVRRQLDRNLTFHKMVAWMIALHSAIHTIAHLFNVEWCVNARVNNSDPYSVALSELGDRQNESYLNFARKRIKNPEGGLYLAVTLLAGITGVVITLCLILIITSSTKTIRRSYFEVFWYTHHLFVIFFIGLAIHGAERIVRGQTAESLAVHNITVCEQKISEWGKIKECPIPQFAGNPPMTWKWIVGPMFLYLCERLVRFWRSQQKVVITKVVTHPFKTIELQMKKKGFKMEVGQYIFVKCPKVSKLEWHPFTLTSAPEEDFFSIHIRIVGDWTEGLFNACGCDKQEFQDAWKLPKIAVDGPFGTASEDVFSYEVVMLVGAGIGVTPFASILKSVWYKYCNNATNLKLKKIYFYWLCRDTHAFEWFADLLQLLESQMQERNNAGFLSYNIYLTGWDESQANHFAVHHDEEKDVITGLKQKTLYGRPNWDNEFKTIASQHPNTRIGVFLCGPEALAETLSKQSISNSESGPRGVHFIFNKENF
Text: (§1) All cell culture reagents were obtained from Invitrogen, unless indicated. COS-22 (COS-7 cells stably expressing human p22^phox) and COS-Nox2 (a.k.a. COS-phox) cells (COS-7 cells stably expressing human p22^phox, Nox2, p47^phox and p67^phox) were kindly provided by Dr. Mary C. Dinauer (Indiana University, School of Medicine) (Price et al., Blood, 2002, 99:2653-2661). COS-22 cells were maintained in Dulbecco's Modified Eagle Medium (DMEM) with 4.5 g/L glucose, L-glutamine and sodium pyruvate containing 10% heat-inactivated fetal bovine serum (FBS), 100 units/ml penicillin and 100 μg/ml streptomycin (complete media) supplemented with 1.8 mg/ml G418 (Calbiochem/EMB Bioscience, Gibbstown, N.J.). COS-Nox2 cells were maintained in complete media supplemented with 1.8 mg/mL G418, 1 μg/mL puromycin (Sigma, St Louis, Mo.) and 0.2 mg/mL hygromycin B (Invitrogen, Carlsbad, Calif.). HEK-Nox5 cells were kindly provided by Dr. David Fulton (Georgia Health Sciences University) and maintained in complete media.
COS-Nox2, COS-Nox1/NOXO1/NOXA1, HEK-Nox5 and COS-22 cells were re-plated in OPTIMEM into 384-well white micro-plates (Greiner-Bio One GmbH, Germany) at a density of 2.5×10^3 cells/well for COS-Nox2 and 5×10^4 cells/well for all others. The cells were incubated at 37° C. in PBS containing […] L-012 for 10 min. Reaction was initiated by addition of 5 μM PMA in the case of Nox2 or 1 μM PMA/0.1 μM Ionomycin in the case of Nox5. Since Nox1 was constitutively active, Nox1-derived O2^•− was assessed by comparison to non-transfected cells (Cos22). Luminescence was quantified over time using a Biotek Synergy 4 Hybrid Multi-Mode Microplate Reader. The specificity of L-012 for O2^•− was confirmed by the addition of SOD (150 U/mL).
(§2) All data are expressed as means±SEM. IC50 values were determined using the GraphPad Prism software (GraphPad Software, San Diego, Calif.) for non-linear regression three-parameters, with constrain values of 100 and 0 for top and bottom, respectively, and assumes a Hill slope of 1.
Heterologous Nox1, 2, 4, and 5 cell systems were used as a testing paradigm to identify a probe molecule that inhibits Nox2 selectively over Nox1, 4, and 5. An acceptable probe would also show a lack of activity against XO, which also produces ROS. The latter screen would serve two purposes: (1) to eliminate drugs that inhibit an oxidase of distinct composition; and (2) to preclude agents that directly scavenge ROS. A cell-based primary assay using stable Nox2-transfected COS cells (Price et al., Blood 2002, 99:2653-2661) with L-012 chemiluminescence (Daiber et al., Free Radic. Biol. Med. 2004, 36:101-111) was used as a detection system for O2^•−-generation.

Nox2 [2] = target: T1, Nox2; assay: ROS (H2O2) generation in whole COS-Nox2 cells, Amplex Red assay; type: cell-based
Text: as §1
H2O2 production was quantified in intact COS-Nox4 cells by Amplex® Red. Briefly, COS-Nox4 cells (5×10^4 cells/ml) were re-plated into 384-well plate in assay buffer (25 mM Hepes, pH 7.4, containing 0.12 M NaCl, 3 mM KCl, 1 mM MgCl2). The cells were incubated in the presence or absence of drugs at 37° C. in assay buffer supplemented with 0.1 mM Amplex® Red, and 0.32 U/ml of horse radish peroxidase (HRP) for 15 min. Fluorescence measurements were made using a Biotek Synergy 4 Hybrid Multi-Mode Microplate Reader with a 530/25-excitation and a 590/35-emission filter. The reaction was monitored at 37° C. for 1 h. A standard curve of known H2O2 concentrations was included on each plate. Nox4 activity was obtained by calculating the rate of H2O2 production as RFU/min and then subtracting the equivalent value given by non-transfected COS-22 cells. Similarly, H2O2 production by Nox2 cells was also measured by Amplex® Red as described above but in the presence of 150 U/mL of SOD and the reaction was initiated by addition of 5 μM PMA. The rate of H2O2 production in this case was calculated as RFU/min after the subtraction of the equivalent value given by non-stimulated cells. Data are expressed as % of vehicle control.
as §2

Bovine milk XO = target: T2, Bovine milk XO (Bos taurus, UniProt P80457); assay: Xanthine oxidase assay (Amplex Red); type: biochemical; conditions: compounds at 25 μM and 50 μM (FIG. 4)
T2 construct: Bovine milk XO (grade 1, ammonium sulfate suspension; Sigma-Aldrich); purchased Sigma-Aldrich; host or cells: bovine milk
Procedure: Bovine milk XO (grade 1, ammonium sulfate suspension; Sigma-Aldrich) was first desalted using PD-10 columns (Sephadex G-25, GE Healthcare Biosciences, Piscataway, N.J.) equilibrated in PBS. XO activity was assayed by measuring H2O2 production using the Amplex® Red assay. Reaction mixture contained: 0.02 U/mL XO, 25 mM Hepes, pH 7.4, containing 0.12 M NaCl, 3 mM KCl, 1 mM MgCl2, 0.1 mM Amplex® Red, and 0.32 U/mL of horse radish peroxidase (HRP), reaction was initiated by addition of 1 mM hypoxanthine. Fluorescence was quantified over time using a Biotek Synergy 4 Hybrid Multi-Mode Microplate Reader.
Data are expressed as % of vehicle control.

T2 sequence (P80457 whole entry): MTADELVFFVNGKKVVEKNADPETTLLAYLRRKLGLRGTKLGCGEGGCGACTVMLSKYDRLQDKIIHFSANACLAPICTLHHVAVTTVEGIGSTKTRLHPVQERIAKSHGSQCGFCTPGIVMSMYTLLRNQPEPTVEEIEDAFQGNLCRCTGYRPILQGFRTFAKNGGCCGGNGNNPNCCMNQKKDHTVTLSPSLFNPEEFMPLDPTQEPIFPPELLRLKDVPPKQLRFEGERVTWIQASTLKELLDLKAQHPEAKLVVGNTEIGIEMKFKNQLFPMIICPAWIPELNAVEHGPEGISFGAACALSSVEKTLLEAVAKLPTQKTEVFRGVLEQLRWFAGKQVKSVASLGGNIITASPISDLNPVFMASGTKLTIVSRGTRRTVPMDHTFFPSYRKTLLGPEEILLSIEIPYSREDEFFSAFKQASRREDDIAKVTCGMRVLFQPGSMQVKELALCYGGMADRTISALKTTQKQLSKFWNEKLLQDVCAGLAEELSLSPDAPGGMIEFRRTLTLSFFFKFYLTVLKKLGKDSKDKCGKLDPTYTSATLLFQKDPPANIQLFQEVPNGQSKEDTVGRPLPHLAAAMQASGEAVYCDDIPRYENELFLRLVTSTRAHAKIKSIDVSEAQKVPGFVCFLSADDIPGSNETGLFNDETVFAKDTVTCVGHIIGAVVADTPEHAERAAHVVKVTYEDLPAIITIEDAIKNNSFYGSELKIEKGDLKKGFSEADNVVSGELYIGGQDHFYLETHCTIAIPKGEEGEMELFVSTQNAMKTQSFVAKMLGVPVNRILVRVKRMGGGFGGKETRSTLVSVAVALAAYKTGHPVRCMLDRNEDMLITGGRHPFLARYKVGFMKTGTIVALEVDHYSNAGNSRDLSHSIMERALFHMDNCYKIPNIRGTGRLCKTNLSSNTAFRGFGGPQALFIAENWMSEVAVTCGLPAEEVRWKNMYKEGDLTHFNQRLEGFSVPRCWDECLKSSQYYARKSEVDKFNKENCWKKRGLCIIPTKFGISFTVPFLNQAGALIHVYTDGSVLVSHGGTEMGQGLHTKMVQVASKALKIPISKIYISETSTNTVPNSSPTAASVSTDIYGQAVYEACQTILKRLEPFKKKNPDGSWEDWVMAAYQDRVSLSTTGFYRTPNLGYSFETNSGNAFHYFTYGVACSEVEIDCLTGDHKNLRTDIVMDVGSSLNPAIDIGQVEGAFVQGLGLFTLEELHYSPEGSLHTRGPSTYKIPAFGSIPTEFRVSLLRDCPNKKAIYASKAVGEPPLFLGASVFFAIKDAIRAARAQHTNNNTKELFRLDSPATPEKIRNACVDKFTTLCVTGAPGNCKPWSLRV

| SMILES | IC50 (Nox2 [1]) | Nox2 inhibitory activity (Nox2 [2]; Table 2) | IC50 (Nox2 [2]; whole COS-Nox2 cells stimulated with 5 μM PMA, Amplex Red) | Effect on ROS production by xanthine oxidase (Bovine milk XO) |
| --- | --- | --- | --- | --- |
| C=C(C)CC1NC2CC(C)(C)C1c1c(-c3cccnc3)cccc12 (racemic) [Compound 12d, (±)-(1S,4R,9S)-3,3-Dimethyl-9-(2-methylallyl)-5-(pyridin-3-yl)-1,2,3,4-tetrahydro-1,4-(epimino-methano)naphthalene] | > 100 µM | inactive | > 100 µM |  |
| c1ccc2c(c1)[I+]c1ccccc1-2 [DPI, reference compound] |  |  |  | complete inhibition |
